Laboratory results reported in patent US7511119B2, “PRAME peptide analogues” (MannKind Corporation, priority 2005, dated 2009).
One block for each molecule: values may come before it. Square brackets hold non-standard residues; d marks the D form. Ends that are not written are not given here. Nle = CCCC[C@H](N)C(=O)O; Nva = CCC[C@H](N)C(=O)O

Columns and labels:
PSMA288-297 peptide = experiment: Plasmid prime, peptide boost, IFN-gamma ELISPOT (PSMA288-297); format: in vivo, HHD transgenic mice; details: versus natural peptide boost, FIG. 23
Protocol: Two groups of HHD transgenic mice (n=8) were immunized with plasmid expressing PSMA288-297 by direct inoculation into the inguinal lymph nodes with 25 μg in […] of PBS to each lymph node at day 0, 3, 14 and 17. This was followed by two peptide boosts (25 μg) at day 28 and 31 with either the natural peptide or the I297V analog.
Mice were sacrificed at 10 days after the last boost, and splenocytes prepared and assessed for IFN-γ production by ELISPOT analysis. […] At 48 hours after incubation, the assay was developed and the frequency of cytokine-producing T cells that recognized the PSMA288-297 peptide was automatically counted. The data is represented in FIG. 23 as frequency of specific T cells normalized to 0.5 million responder cells (mean of triplicates+SD).

[1] = tested on: native PSMA288-297 peptide; experiment: Cross-reactive immunogenicity of PSMA analogs, IFN-gamma ELISPOT; format: in vivo, HHD transgenic mice; details: peptide plus pI:C intranodal; FIG. 22
Protocol: Groups of HHD transgenic mice (n=8) were immunized with peptide (natural epitope PSMA288-297, or analogs bearing substitutions at primary or secondary anchor residues) by direct inoculation into the inguinal lymph nodes, with 25 μg in 25 μl of PBS+12.5 μg of pI:C to each lymph node at day 0, 3, 14 and 17.
Mice were sacrificed at 10 days after the last boost, and splenocytes prepared and assessed for IFN-γ production by ELISPOT analysis. […] At 48 hours after incubation, the assay was developed and the frequency of cytokine-producing T cells that recognized native PSMA288-297 peptide was automatically counted. The data is represented in FIG. 22 as the number of spot forming colonies/well (mean of triplicates±SD). […] To the extent that the poor immunogenicity of the native epitope reflects tolerance, the improved activity of these analogs represents tolerance breaking.

LnCap cells = experiment: Ex vivo cytotoxicity against PSMA+ A2+ human tumor cells; format: in vivo; details: splenocytes restimulated ex vivo with native PSMA288-297
Protocol: HHD transgenic mice (n=4) were immunized with PSMA288-297 peptide (25 μg in 25 μl of PBS, plus 12.5 μg of pI:C to each lymph node) at day 0, 3, 14 and 17. One week after the boost, splenocytes were stimulated ex vivo with the native PSMA288-297 peptide and tested against ^51Cr-labeled human tumor cells (PSMA^+ A2^+ LnCap cells, or as negative control, LnCap cells coated with MHC class I-blocking antibody) at various E:T ratios.
HHD transgenic mice (n=4) were immunized with plasmid expressing the PSMA288-297 epitope by direct inoculation into the inguinal lymph nodes with 25 μg in 25 μl of PBS to each lymph node at day 0, 3, 14 and 17. This was followed by two peptide boosts (same amount) at day 28 and 31, with the analog I297V. One week after the boost, splenocytes were stimulated ex vivo with the native PSMA288-297 peptide and tested overnight against ^51Cr-labeled human tumor cells (Lncap, A2^+ PSMA^+; or 624.38 A2^+ PSMA^− or control 624.28 cells A2^− PSMA^−) at various E:T ratios.

[2] = tested on: native peptide loaded splenocytes; experiment: In vivo cytotoxicity against native PRAME peptide-loaded splenocytes (CFSE); design: species or system HHD transgenic mice; details: pCTLR2 prime, peptide boost; FIGS. 30-31
[3] = target: T1, A0201 restricted MHC Class 1 molecules (Homo sapiens, UniProt P04439, D140Y/D185E/D98H/E176V/E277Q/G131W/G231S/I119V/I121R/I166T/I218V/N151K/N90K/P208A/P217A/Q86G/Q94H/R138H/R169H); experiment: iTopia binding assay (% binding); details: compared with the native peptide
Source text: (§1) Avidin-coated microtiter plates containing class I monomer loaded with a so-called placeholder peptide were used to evaluate peptide binding, affinity and off-rate. […] Assay buffers, anti-MHC-FITC mAb and beta2-microglobulin and control peptides were also supplied with the kits.
This assay measures the ability of individual peptides to bind HLA molecules under standardized optimal binding conditions. Monomer-coated plates were first stripped, releasing the placeholder peptide and leaving only the MHC heavy chain bound to the plate. Test peptides were then introduced under optimal folding conditions, along with the anti-MHC-FITC mAb. […] The anti-MHC-FITC mAb binds preferentially to a refolded MHC complex. Therefore, the fluorescence intensity resulting from each peptide was related to the peptide's ability to form complex with MHC molecule. Each peptide's binding was evaluated relative to the positive control peptide provided in the kit, and the results were expressed “% binding”.

624.38 cells = experiment: Ex vivo cytotoxicity against human tumor cells after boost with tyrosinase analogs; format: in vivo; details: pSEM prime, peptide boost; FIG. 41
Protocol: HHD transgenic mice (n=4/group) were immunized (according to the general protocol in FIG. 40) with plasmid (pSEM) expressing the Tyrosinase369-377 epitope by direct inoculation into the inguinal lymph nodes of 25 μg of plasmid in 25 μl of PBS per lymph node at day 0, 3, 14 and 17. […] One week after the boost, splenocytes were stimulated ex vivo with the native Tyrosinase369-377 peptide and assayed against ^51Cr-labeled human tumor cells (624.38 cells) at various E:T ratios. […] Together with the preceding example, this observation illustrates the usefulness of complementing more stringent assays (in vivo cytotoxicity and tetramer staining) with more sensitive assays (ex vivo cytotoxicity after in vitro stimulation) to outline potentially useful analogs.

HLA-A*0201 [4] = target: T2, HLA-A*0201 (Homo sapiens, UniProt P04439, D140Y/D185E/D98H/E176V/E277Q/G131W/G231S/I119V/I121R/I166T/I218V/L300P/L318F/N151K/N90K/P208A/P217A/Q86G/Q94H/R138H/R169H/T345S); experiment: iTopia affinity assay (ED50); format: binding; details: PRAME425-433 analogs; affinity lower than native
Source text: Avidin-coated microtiter plates containing class I monomer loaded with a so-called placeholder peptide were used to evaluate peptide binding, affinity and off-rate. The monomer-coated plates were supplied as part of the iTopia Epitope Discovery System Kit (Beckman Coulter, Inc., San Diego, Calif., USA). Assay buffers, anti-MHC-FITC mAb and beta2-microglobulin and control peptides were also supplied with the kits.
Plates were read on the fluorometer. Sigmoidal dose response curves were generated using Prism software.

624.38 melanoma cells [5] = experiment: Ex vivo cytotoxicity against PRAME+ A2+ human tumor cells; format: in vivo; details: splenocytes restimulated ex vivo with native PRAME peptide
Protocol: This was followed by two peptide boosts (2.5 μg) at day 28 and 31, with the analog L426Nva L433Nle.

624.38 melanoma cells [6] = experiment: Ex vivo cytotoxicity against human tumor cells after boost with SSX-2 analogs; format: in vivo; details: plasmid prime, peptide boost; FIG. 12
Protocol: Eight groups of mice (n=4) were immunized with plasmid expressing SSX-241-49 natural epitope by direct inoculation into the inguinal lymph nodes with 25 ug in 25 ul of PBS/each lymph node at day 0, 3, 14 and 17. This was followed by two additional peptide boosts (similar amount) at day 28 and 31, using a negative control peptide (Melan A 26-35 “EAA”), natural peptide or analogs as shown in FIG. 9.

[7] = tested on: T cell lines against natural epitope SSX-241-49; experiment: Cross-reactivity and functional avidity: IFN-gamma production by T cell lines raised against natural SSX-2 41-49; format: cell-based, HHD transgenic mice; details: T cells raised to native peptide tested on analogs; footnote * and unit not given;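 further: analogs presented ex vivo by competent APCs to T cells specific for the non-mutated epitope, scored by lowest activating concentration, peak cytokine effect and concentration at that peak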
[8] = tested on: target cells coated with natural peptide; experiment: In vivo cytotoxicity against splenocytes coated with natural SSX-2 41-49 peptide (CFSE); design: species or system HHD mice; details: spleen and blood; targets coated with 20 μg/ml and 1 μg/ml natural peptide
Protocol: Eight groups of mice (n=4) were immunized with plasmid expressing SSX-241-49 natural epitope, by direct inoculation into the inguinal lymph nodes with 25 μg in 25 μl of PBS/each lymph node at day 0, 3, 14 and 17. This was followed by two additional peptide boosts (similar amount) at day 28 and 31, using a negative control peptide (Melan A 26-35 “EAA”), natural peptide or analogs as shown in FIG. 9.
To evaluate the in vivo response against natural peptide, splenocytes were isolated from littermate control HHD mice and incubated with 20 μg/mL or 1 μg/ml of natural peptide for 2 hours. These cells were then stained with CFSE^hi fluorescence (4.0 μM or […] for 15 minutes) and intravenously co-injected into immunized mice with an equal number of control splenocytes stained with CFSE^lo fluorescence (0.4 μM). Eighteen hours later the specific elimination of target cells was measured by removing spleen and PBMC from challenged animals and measuring CFSE fluorescence by flow cytometry. The relative depletion of the populations corresponding to peptide loaded splenocytes was calculated relative to the control (unloaded) population and expressed as % specific lysis. FIG. 10 (spleen) and 11 (blood) show the in vivo cytotoxicity elicited by the regimens described in FIG. 7.

T2 cells = experiment: Ex vivo cytotoxicity against 51Cr-labeled T2 target cells after plasmid prime and peptide boost; format: in vivo, mice; details: plasmid prime, peptide boost; splenocytes restimulated ex vivo; FIG. 8
Protocol: Three groups of mice (n=4) were immunized with a plasmid expressing SSX-241-49 natural epitope by direct inoculation into the inguinal lymph nodes with 25 μg in 25 μl of PBS/each lymph node at day 0, 3, 14 and 17. This was followed by two additional peptide boosts (similar amount) at day 28 and 31. One week after the boost, splenocytes were stimulated ex vivo with SSX-241-49 natural peptide and tested against ^51Cr-labeled target cells (T2 cells) at various E:T ratios (FIG. 8). […] This correlated with the binding and stability parameters determined by ex vivo experimentation.

splenocytes = experiment: Ex vivo IFN-gamma production after re-stimulation with wild-type NY-ESO-1157-165 (ELISA); format: in vivo, mice; details: 10 μM wild-type peptide, 3 and 6 days; FIG. 17
Source text: Supernatants were harvested and the concentration of IFN-γ measured by ELISA.

[9] = tested on: target cells coated with wild-type peptide; experiment: In vivo cytotoxicity against wild-type NY-ESO-1 peptide-coated target cells; design: species or system HHD mice; details: plasmid entrain, peptide amplify; FIGS. 15-16
Protocol: These cells were then stained with CFSE^hi and CFSE^med fluorescence (4.0 μM or 1 μM, respectively, for 15 minutes) and intravenously co-injected into immunized mice with an equal number of control splenocytes stained with CFSE^lo fluorescence (0.4 μM). Eighteen hours later the specific elimination of target cells was measured by removing the spleens and PBMC from challenged animals and measuring CFSE fluorescence by flow cytometry. The relative depletion of the populations corresponding to peptide loaded splenocytes was calculated relative to the control (unloaded) population and expressed as % specific lysis.

[10] = target: T1, A0201 restricted MHC Class 1 molecules; experiment: iTopia off-rate assay (T1/2); format: binding; details: compared with the respective native peptide
Protocol: as §1
The plates were then incubated on the allele-specific monomer plates at 37° C. The plates were measured at multiple time points (0, 0.5, 1, 1.5, 2, 4, 6 and 8 hrs) for relative fluorescence intensity. The time required for 50% of the peptide to dissociate from the MHC monomer is defined as the T1/2 value (hrs).
The binding and offrate (T1/2) was determined for six native epitopes and their analogs which were designed to enhance the immune response.

HLA-A*0201 [11] = target: T2, HLA-A*0201; experiment: Peptide binding using T2 cells; details: compared with wild-type peptide;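 further: Read-out is peptide-induced stabilization of HLA-A*0201 on the cell surface, reflecting mainly Kon at limiting peptide levels and both Kon and Koff at saturating levels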
Source text: Thus, at limiting concentrations of peptide, it is a measurement of Kon mostly and at saturation levels of peptide it is a measurement of both Kon and Koff.
Thus, at limiting concentrations of peptide, this is a measurement of Kon mostly and at saturation levels of peptide that is a measurement of both Kon and Koff.

[12] = tested on: PRAME425-433-specific T cells; experiment: Tetramer/CD8 co-staining of PRAME425-433-specific T cells; format: in vivo, HHD transgenic mice; details: versus boost with negative control peptide; FIG. 31
[13] = target: T3, HLA-A*0201 class I monomer of the iTopia Epitope Discovery System; experiment: iTopia affinity assay
T3 construct: also called A0201 restricted MHC Class 1 molecules; MHC monomer

[14] = target: T3, HLA-A*0201 class I monomer of the …; experiment: iTopia off-rate assay
[15] = target: T3, HLA-A*0201 class I monomer of the …; experiment: iTopia affinity and off-rate assays

Molecule: PSMA 288-297(I297V): PSMA288-297 analog with I297V substitution
frequency of native epitope-specific T cells (ELISPOT) (PSMA288-297 peptide): considerably higher
priming of immune response against native PSMA288-297 (IFN-γ ELISPOT), in words [1]: increased priming
cytotoxicity against LnCap human tumor cells (LnCap cells): effective in mediating cytotoxicity against LNCAP

percent binding, in words [3]: exceeded that range on the high side
Molecule: S425F: PRAME425-433 analog with Phe for the Ser at P1 (FLLQHLIGL) [Peptide S425F]
in vivo cytotoxicity against native epitope, in words [2]: capable of expanding the immunity against the native epitope

Molecule: YMDGTMSQV [Tyrosinase 369-377, reference compound]
cytotoxicity against 624.38 cells (624.38 cells): robust cytotoxicity

ED50 relative to native peptide (HLA-A*0201 [4]): more than 10 fold
Molecule: Ala substitution: PRAME425-433 analog with Ala at the PΩ anchor position (SLLQHLIGA; UniProt P78395 425-433, looked up, variant L433A)

Molecule: SLLQHLIGL [PRAME 425-433, reference compound]
cytotoxicity against 624.38 human tumor cells (624.38 melanoma cells [5]): able to lyse human tumor cells

Molecule: CC[C@H](C)[C@H](NC(=O)[C@H](CCCCN)NC(=O)[C@H](CCC(=O)O)NC(=O)[C@H](CO)NC(=O)[C@@H](NC(=O)[C@@H](N)CCCCN)C(C)C)C(=O)N[C@@H](Cc1ccccc1)C(=O)N[C@@H](Cc1ccc(O)cc1)C(=O)N[C@H](C(=O)O)C(C)C [SSX2 41-49 (A42V)]
cytotoxicity against human tumor cells expressing natural SSX-2 41-49 epitope (624.38 melanoma cells [6]): increased cytotoxicity
Cross-reactivity and fct avidity (native to analogs)* [7]: 0.03
in vivo cytotoxicity (% specific lysis), in words [8]: increased activity
response against target cells expressing the natural peptide (T2 cells): higher response

stability of binding (half-time of dissociation), in words [10]: Significant increase in the stability
Molecule: SNvaLMWITQV (S[Nva]LMWITQV) [Nyeso-1 157-165 (L158Nva, C165V))]
IFN-gamma production upon ex vivo re-stimulation with wild-type peptide (splenocytes): large levels of IFN-gamma more rapidly
in vivo cytotoxicity (% specific lysis), in words [9]: substantial, constant cytotoxicity

Molecule: GLPSIPVHPI (T cell peptide epitope analog) [PSMA 288-297, reference compound]
binding affinity / binding profile with HLA-A*0201 on T2 cells, in words (HLA-A*0201 [11]): generally superior binding characteristics
priming of immune response against native PSMA288-297 (IFN-γ ELISPOT), in words [1]: poorly immunogenic
cytotoxicity against LnCap human tumor cells (LnCap cells): able to lyse human tumor cells

Molecule: T{Nva}LQHLIG{Nle} (T[Nva]LQHLIG[Nle]) [S425T L426Nva L433Nle]
expansion of T cells specific against the native epitope (tetramer staining) [12]: significantly higher
in vivo cytotoxicity against native epitope, in words [2]: capable of expanding the immunity against the native epitope

Molecule: YVDGTMSQNva (YVDGTMSQ[Nva]) [M370V V377Nva]
cytotoxicity against 624.38 cells (624.38 cells): robust cytotoxicity

fold difference of ED50 against the native peptide [13]: ≤ 3 fold
t1/2 [14]: 17.2 h
B1: PRAME425-433 analog with Nva at PΩ (peptide)
peptide: SLLQHLIG[Nva]

binding result [15]: binds
B2: PRAME425-433 analog with Phe at P1, Nva at P2 and Nle at PΩ (peptide)
peptide: F[Nva]LQHLIG[Nle]
